From patent US20240199618A1, “NOVEL N-ACYL-[3-SUBSTITUTED]-[8-SUBSTITUTED]-5,6-DIHYDRO-[1,2,4]TRIAZOLO[4,3-a]PYRAZINES AS SELECTIVE NK-3 RECEPTOR ANTAGONISTS, PHARMACEUTICAL COMPOSITION, METHODS FOR USE IN NK-3 RECEPTOR-MEDIATED DISORDERS” (Ogeda SA, priority 2013, published 2024)
Read-outs that look alike come from different tables or passages of the source.

What was measured:
[1] = tested on: circulating levels of luteinizing hormone (LH); assay: Castrated male rat model, circulating luteinizing hormone (LH); assay type: in vivo; details: single oral dose less than or equal to 30 mg/kg, p<0.05
Experimental: Castrated Male Rat Model to Assess the Effect of Compound of Invention on Circulating Levels of Luteinizing Hormone (LH)
The effect of compounds of the invention to inhibit luteinizing hormone (LH) secretion is determined by the following biological studies.
In humans and rodents, castration is well-precedented to permit heightened, persistent GnRH signaling and consequent elevation of circulating LH. Thus, a castrated rat model is used to provide a broad index for measurement of LH inhibition as a marker of test compound inhibition of the GnRH signaling pathway.
Castrated adult male Sprague-Dawley (SD) rats (150-175 g,) were purchased from Janvier (St Berthevin, France). All animals were housed 2 per cage in a temperature-controlled room (22±2° C.) and 50±5% relative humidity with a 12 hour/12 hour light/dark cycles (lights off at […]). The animals were allowed 3 weeks of postoperative recovery prior to study. Animals were handled on a daily basis. Standard diet and tap water were provided ad libitum. Animal cage litters were changed once a week. On the study day, animals were acclimated to the procedure room for a period of one hour prior to the initiation of the experiment.
Compounds of the invention were formulated in 0.5% methyl cellulose.
After basal sampling (TO) a single dose of compounds of the invention or vehicle was administrated orally to rats. Blood samples were then collected at several time points post dosing (45, 90, 150, 300 and 420 minutes). Blood samples were obtained via tail vein bleed, drawn into EDTA-containing tubes and centrifuged immediately. Plasma samples were collected and stored in a −80° C. freezer until assayed. Serum LH levels were determined using radioimmunoassay kit from RIAZEN—Rat L H, Zentech (Liege, Belgium). Baseline was defined as the initial basal blood sample.

human NK-3 receptor [2] = molecular target: T1, human NK-3 receptor (Homo sapiens (Human), UniProt P29371); assay: Aequorin functional assay with human NK-3 receptor (antagonist testing vs NKA); assay type: cell-based; details: CHO cells, NKA at EC80 (3 nM); read-out: Functional assay: Aequorin assay with human NK-3 receptor hNK-3-AEQ (antagonist IC50)
Procedure, shortened: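 CHO cells co-expressing human NK-3 receptor and apoaequorin were pre-incubated 3 min with compound, then challenged with NKA at EC80 (3 nM). Coelenterazine-dependent luminescence was integrated over 90 s, and antagonism was derived from concentration-dependent inhibition of the calcium response.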

human NK-2 receptor = human NK-2 receptor (Homo sapiens (Human), UniProt P21452); assay: Selectivity assay: [125I]-Neurokinin A binding, human NK-2 receptor; details: 0.1 nM [125I]-Neurokinin A, CHO membranes; read-out: hNK-2 (Ki)
Experimental: The affinity of compounds of the invention for the NK-2 receptor was evaluated in CHO recombinant cells which express the human NK-2 receptor. Membrane suspensions were prepared from these cells. […] Binding assays were performed in a 25 mM HEPES/1 mM CaCl2)/5 mM MgCl2/0.5% BSA/10 μg/ml saponin, at pH 7.4. […] The radioactivity retained on the filters was measured by using the TopCount-NXT reader (Packard).

human NK-1 receptor = human NK-1 receptor (Homo sapiens (Human), UniProt P25103); assay: Selectivity assay: [3H] substance P binding, human NK-1 receptor; details: 2 nM [3H] substance P, CHO membranes; read-out: hNK-1 (Ki)
Procedure, shortened: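 Competition binding on membranes from CHO cells expressing human NK-1 receptor, using 2 nM [3H] substance P in 50 mM Tris/5 mM MnCl2/150 mM NaCl/0.1% BSA, pH 7.4, with increasing compound concentrations. Incubated 60 min at 25 °C; bound radioactivity measured after filtration.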

human NK-3 receptor [3] = molecular target: T1, human NK-3 receptor; assay: 3H-SB222200 binding competition assay with human NK-3 receptor
Procedure, shortened: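 Membranes from CHO cells stably expressing the receptor were incubated with 5 nM 3H-SB222200 and varying compound concentrations in HEPES 25 mM/NaCl 0.1 M/CaCl2 1 mM/MgCl2 5 mM/BSA 0.5%/saponin 10 μg/ml, pH 7.4. Bound radioligand was quantified as membrane-associated radioactivity after filtration.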

plasma protein = assay: Determination of plasma protein binding (equilibrium dialysis, RED); assay type: in vitro ADME; details: 4 hours at 37° C.
[4] = Table 2, 5 nM 3H-SB222200, CHO membranes, read-out: Competitive binding assay with human NK-3 receptor hNK-3 (Ki)
[5] = Table 3 (selectivity table), read-out: hNK-3 (Ki)

T1 sequence (P29371 whole entry): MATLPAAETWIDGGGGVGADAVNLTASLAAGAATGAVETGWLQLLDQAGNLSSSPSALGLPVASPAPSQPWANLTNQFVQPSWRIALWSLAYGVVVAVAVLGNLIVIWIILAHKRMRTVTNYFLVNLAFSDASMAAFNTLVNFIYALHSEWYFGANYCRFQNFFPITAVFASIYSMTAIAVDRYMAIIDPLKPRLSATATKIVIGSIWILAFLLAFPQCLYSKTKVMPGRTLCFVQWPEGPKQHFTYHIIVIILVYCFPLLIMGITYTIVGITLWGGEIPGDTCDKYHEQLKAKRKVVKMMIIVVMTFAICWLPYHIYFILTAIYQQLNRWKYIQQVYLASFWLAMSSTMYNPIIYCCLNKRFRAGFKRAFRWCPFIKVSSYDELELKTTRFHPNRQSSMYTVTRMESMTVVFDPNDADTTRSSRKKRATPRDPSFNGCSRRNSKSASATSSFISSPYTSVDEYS
Chain of human NK-2 receptor (P21452 whole entry): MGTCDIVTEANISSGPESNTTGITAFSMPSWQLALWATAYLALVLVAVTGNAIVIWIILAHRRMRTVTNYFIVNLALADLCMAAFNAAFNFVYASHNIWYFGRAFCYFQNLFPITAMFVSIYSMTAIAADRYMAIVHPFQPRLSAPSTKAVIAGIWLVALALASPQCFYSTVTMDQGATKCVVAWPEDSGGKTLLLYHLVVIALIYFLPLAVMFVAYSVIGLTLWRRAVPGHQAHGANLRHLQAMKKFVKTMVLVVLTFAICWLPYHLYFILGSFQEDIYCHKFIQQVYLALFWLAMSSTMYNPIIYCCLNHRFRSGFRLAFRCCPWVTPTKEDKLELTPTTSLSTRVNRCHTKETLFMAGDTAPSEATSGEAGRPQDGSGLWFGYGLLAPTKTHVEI
Chain of human NK-1 receptor (P25103 whole entry): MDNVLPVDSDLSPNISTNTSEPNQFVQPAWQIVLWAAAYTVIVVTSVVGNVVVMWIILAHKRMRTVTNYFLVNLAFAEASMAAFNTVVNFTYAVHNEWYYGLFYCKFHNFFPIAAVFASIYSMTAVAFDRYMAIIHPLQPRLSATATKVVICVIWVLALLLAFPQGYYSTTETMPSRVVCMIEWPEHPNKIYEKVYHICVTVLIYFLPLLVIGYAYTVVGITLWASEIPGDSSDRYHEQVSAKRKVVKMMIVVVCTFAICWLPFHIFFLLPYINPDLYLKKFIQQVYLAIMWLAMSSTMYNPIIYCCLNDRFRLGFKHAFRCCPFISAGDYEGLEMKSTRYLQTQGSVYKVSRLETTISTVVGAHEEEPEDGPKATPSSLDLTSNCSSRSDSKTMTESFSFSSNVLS

Row | SMILES | circulating LH levels [1] | IC50 (human NK-3 receptor [2]) | Ki (human NK-2 receptor) | Ki (human NK-1 receptor) | Ki (human NK-3 receptor [3]; [4]) | Ki (human NK-3 receptor [3]; [5]) | Exposure (% rPPB), bound drug fraction to plasma protein (plasma protein)
1 | Cc1nsc(-c2nnc3n2CCN(C(=O)c2ccc(Cl)c(F)c2)[C@@H]3C)n1 [Compound 4, (R)-(4-chloro-3-fluorophenyl)(8-methyl-3-(3-methyl-1,2,4-thiadiazol-5-yl)-5,6-dihydro-[1,2,4]triazolo[4,3-a]pyrazin-7(8H)-yl)methanone] | significantly suppressed | 19 nM | 23000 nM | 19900 nM | 20 nM | 20 nM | 40%
2 | Cc1nsc(-c2nnc3n2CCN(C(=O)c2ccc(F)c(F)c2F)[C@@H]3C)n1 [Compound 8, (R)-(8-methyl-3-(3-methyl-1,2,4-thiadiazol-5-yl)-5,6-dihydro-[1,2,4]triazolo[4,3-a]pyrazin-7(8H)-yl)(2,3,4-trifluorophenyl)methanone] | significantly suppressed | 33 nM | > 30000 nM | > 30000 nM | 26 nM | 26 nM | 29%
3 | Cc1nsc(-c2nnc3n2CCN(C(=O)c2ccc(F)c(F)c2)[C@@H]3C)n1 [Compound 9, (R)-(3,4-difluorophenyl)(8-methyl-3-(3-methyl-1,2,4-thiadiazol-5-yl)-5,6-dihydro-[1,2,4]triazolo[4,3-a]pyrazin-7(8H)-yl)methanone] | significantly suppressed | 21 nM | > 30000 nM | > 30000 nM | 30 nM | 30 nM | 22%
4 | CCc1noc(-c2nnc3n2CCN(C(=O)c2ccc(F)cc2)[C@@H]3C)n1 [Compound 13, (R)-(3-(3-ethyl-1,2,4-oxadiazol-5-yl)-8-methyl-5,6-dihydro-[1,2,4]triazolo[4,3-a]pyrazin-7(8H)-yl)(4-fluorophenyl)methanone] | significantly suppressed | 44 nM | > 30000 nM | > 30000 nM | 40 nM | 40 nM | 37%
